# Results from patent EP4722207A1, “OXOISOINDOLINYL-SUBSTITUTED TETRAHYDROPYRIMIDINEDIONE DERIVATIVE AND USE THEREOF” (Gluetacs Therapeutics (Shanghai) Co., Ltd., priority 2023, dated 2024).
# How the values were obtained:
# MM.1S = test: Cell viability assay (CellTiter-Meiluncell Luminescent), tumor cell proliferation, MM.1S; settings: Homo sapiens, MM1.S, 96 h
# Description: (§1) The tumor cells used herein were cultured in a cell culture medium listed in table 2 at 37°C in an incubator with 5% CO2. Prior to experimentation, all cell lines used were correctly identified by STR profiling, and tested negative for mycoplasma contamination using a mycoplasma detection kit through routine screenings.
# (§2) On the following day, the test compounds of the present disclosure were subjected to serial dilution. […] Subsequently, 0.5 µL of the test compound dilution was transferred into the 96-well plate containing the cells, with each well containing 100 µL of cell culture medium. […] Into the 96-well plate, the diluted test compounds and corresponding detection reagents were added, resulting in final test compound concentrations of 500 nM and 10 nM, respectively. The experimental procedure is described below using the diluted 2 µM test compound as an example.
# (§3) After the cells were treated with the compounds of the present disclosure for a specified period, the cell viability assay reagent was added to the culture medium according to the kit's instructions to determine cell viability. […] All controls were treated using the same procedure as the compounds of the present disclosure. The growth inhibition curves for the compounds of the present disclosure were plotted using Prism GraphPad software, and the IC50 values were calculated therefrom.
# [1] = target: T1, human Cereblon WT GST-tagged protein (Homo sapiens, UniProt Q96SW2); test: CRBN-binding affinity, CEREBLON BINDING kit (HTRF); settings: for inhibition at 0.5 µM: read-out: Inhibition Rate at 0.5 µM (%); for inhibition at 2 µM: read-out: Inhibition Rate at 2 µM (%)
# T1 construct: purchased CISBIO 64BDCRBNPEH
# T1 sequence (Q96SW2 whole entry): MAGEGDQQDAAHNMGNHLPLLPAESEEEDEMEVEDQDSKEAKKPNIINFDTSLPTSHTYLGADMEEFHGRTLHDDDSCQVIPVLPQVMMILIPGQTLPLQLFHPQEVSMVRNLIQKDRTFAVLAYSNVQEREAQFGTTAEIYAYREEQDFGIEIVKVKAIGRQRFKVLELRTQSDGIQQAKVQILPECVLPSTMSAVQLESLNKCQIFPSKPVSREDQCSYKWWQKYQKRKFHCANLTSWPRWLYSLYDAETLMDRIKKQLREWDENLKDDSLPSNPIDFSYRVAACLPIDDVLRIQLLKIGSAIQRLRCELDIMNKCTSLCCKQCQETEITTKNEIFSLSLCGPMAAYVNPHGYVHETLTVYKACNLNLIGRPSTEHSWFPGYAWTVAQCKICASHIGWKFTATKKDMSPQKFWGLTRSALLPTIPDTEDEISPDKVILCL
# Description: The CEREBLON BINDING kits (specification: 10,000 tests; product number: Catalog # 64BDCRBNPEH; CISBIO company) was used to determine the CRBN binding ability of the compounds to be tested through a HTRF method (homogeneous time-resolved fluorescence). The specific methods are as follows: • 1. […] Specifically, diluent #9 (1X) solution was used as the diluent, and multiple concentration gradients were set. […] Into the 96-well plate, the diluted test compounds and corresponding detection reagents were added, resulting in final test compound concentrations of 2 µM and 0.5 µM, respectively. […] Then, 2.5 µL of human Cereblon WT GST-tagged protein solution was added to each well. Finally, 5 µL of the thoroughly mixed Thalidomide-Re reagent and GST Eu antibody working solution were added to each of the aforementioned wells. […] The blank control wells were sequentially added with 2.5 µL of diluent #9 (1X) solution, 2.5 µL of binding buffer, and 5 µL of thoroughly mixed Thalidomide-Re reagent and GST Eu antibody working solution. • 4. […] OD 620 nm control is the absorbance value of the blank control well at an emission wavelength of 620 nm. […] OD 620 nm Std0 is the absorbance value of the solvent control well at an emission wavelength of 620 nm.
# H2228 = test: Cell viability assay (CellTiter-Meiluncell Luminescent), tumor cell proliferation, H2228; settings: Homo sapiens, NCI-H2228, 96 h; for inhibition at 0.01 µM: read-out: Inhibition Rate at 10 nM (%); for inhibition at 0.5 µM: read-out: Inhibition Rate at 500 nM (%)
# IKZF3 = target: T2, IKZF3 (Homo sapiens, UniProt Q96SW2+Q9UKT9); test: Western-blot assay, substrate protein degradation in hPBMCs: IKZF3; assay type: cell-based; settings: 24 hours of compound treatment, 50 nM and 500 nM
# T2 construct: effects of the compounds of the present disclosure on the expression of target proteins in cells; endogenous in cells; host or cells: human PBMCs (hPBMCs)
# T2 sequence (Q9UKT9 whole entry): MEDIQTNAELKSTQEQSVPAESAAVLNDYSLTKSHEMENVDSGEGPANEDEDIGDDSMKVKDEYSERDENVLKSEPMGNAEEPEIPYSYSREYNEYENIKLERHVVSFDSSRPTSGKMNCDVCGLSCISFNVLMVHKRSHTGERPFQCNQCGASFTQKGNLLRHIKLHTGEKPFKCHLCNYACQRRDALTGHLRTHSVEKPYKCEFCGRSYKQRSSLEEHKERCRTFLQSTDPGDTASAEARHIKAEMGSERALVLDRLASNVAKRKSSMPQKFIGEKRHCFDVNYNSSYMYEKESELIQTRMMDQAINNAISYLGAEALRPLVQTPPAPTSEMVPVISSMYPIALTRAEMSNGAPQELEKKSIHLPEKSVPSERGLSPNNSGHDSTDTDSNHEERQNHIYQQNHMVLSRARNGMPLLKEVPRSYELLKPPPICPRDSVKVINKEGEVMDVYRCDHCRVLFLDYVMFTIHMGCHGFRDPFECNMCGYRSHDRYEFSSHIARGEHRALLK
# T2 sequence (Q96SW2 whole entry): as the sequence (Q96SW2 whole entry) above
# T2 sequence (Q16531 whole entry partner): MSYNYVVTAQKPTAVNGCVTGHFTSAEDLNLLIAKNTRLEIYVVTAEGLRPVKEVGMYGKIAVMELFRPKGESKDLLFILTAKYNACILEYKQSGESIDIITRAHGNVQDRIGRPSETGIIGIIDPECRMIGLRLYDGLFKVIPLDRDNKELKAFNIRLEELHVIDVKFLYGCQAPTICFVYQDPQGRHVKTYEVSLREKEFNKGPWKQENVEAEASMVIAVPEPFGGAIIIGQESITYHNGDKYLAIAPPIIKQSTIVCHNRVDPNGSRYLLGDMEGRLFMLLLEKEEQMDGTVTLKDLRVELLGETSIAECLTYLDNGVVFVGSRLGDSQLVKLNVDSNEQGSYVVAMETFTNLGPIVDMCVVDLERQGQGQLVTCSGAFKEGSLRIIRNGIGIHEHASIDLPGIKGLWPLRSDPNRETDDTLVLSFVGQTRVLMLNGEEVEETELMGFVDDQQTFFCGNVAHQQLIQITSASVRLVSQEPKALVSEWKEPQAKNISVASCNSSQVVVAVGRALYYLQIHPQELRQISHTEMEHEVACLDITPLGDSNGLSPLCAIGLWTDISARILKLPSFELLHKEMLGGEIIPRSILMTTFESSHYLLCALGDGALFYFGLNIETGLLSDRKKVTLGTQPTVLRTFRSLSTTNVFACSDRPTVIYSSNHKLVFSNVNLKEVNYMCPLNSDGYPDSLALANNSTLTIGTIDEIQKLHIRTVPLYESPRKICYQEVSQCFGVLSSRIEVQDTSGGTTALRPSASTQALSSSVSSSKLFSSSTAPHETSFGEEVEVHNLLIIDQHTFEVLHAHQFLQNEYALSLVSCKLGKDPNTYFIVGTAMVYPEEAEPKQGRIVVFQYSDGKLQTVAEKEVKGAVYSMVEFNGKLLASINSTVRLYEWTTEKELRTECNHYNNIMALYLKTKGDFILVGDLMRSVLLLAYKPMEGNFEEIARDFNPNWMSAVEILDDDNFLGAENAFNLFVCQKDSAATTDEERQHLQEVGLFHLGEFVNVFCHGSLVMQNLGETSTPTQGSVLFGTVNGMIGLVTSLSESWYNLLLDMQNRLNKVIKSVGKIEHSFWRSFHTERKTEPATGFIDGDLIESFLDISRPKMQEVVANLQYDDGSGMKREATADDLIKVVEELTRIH
# GSPT1 = target: T3, GSPT1 (Homo sapiens, UniProt P15170+Q96SW2); test: Western-blot assay, substrate protein degradation in hPBMCs: GSPT1; assay type: cell-based; settings: 24 hours of compound treatment, 50 nM and 500 nM
# T3 construct: effects of the compounds of the present disclosure on the expression of target proteins in cells; endogenous in cells; host or cells: human PBMCs (hPBMCs)
# WEE1 = target: T4, WEE1 (Homo sapiens, UniProt P30291+Q96SW2); test: Western-blot assay, substrate protein degradation in hPBMCs: WEE1; assay type: cell-based; settings: 24 hours of compound treatment, 50 nM and 500 nM
# T4 construct: effects of the compounds of the present disclosure on the expression of target proteins in cells; endogenous in cells; host or cells: human PBMCs (hPBMCs)
# T4 sequence (P30291 whole entry): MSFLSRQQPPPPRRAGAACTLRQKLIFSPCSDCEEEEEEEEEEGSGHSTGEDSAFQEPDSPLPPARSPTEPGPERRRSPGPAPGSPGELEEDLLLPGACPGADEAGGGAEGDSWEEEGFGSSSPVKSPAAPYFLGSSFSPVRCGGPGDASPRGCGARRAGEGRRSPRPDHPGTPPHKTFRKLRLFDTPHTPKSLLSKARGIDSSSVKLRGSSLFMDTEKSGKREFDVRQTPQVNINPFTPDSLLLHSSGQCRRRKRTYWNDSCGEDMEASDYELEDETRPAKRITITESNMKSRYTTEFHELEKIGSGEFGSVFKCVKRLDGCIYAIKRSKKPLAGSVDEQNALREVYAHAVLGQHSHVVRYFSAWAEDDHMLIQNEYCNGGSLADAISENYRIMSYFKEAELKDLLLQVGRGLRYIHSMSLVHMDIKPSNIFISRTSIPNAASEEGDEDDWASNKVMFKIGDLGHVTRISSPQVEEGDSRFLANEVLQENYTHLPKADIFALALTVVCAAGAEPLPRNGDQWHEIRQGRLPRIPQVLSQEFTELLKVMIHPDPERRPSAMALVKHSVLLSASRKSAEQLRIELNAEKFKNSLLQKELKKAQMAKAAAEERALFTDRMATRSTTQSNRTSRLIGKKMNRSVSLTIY
# T4 sequence (Q96SW2 whole entry): as the sequence (Q96SW2 whole entry) above
# T4 sequence (Q16531 whole entry partner): as the sequence (Q16531 whole entry partner) above
# CK1α = target: T5, CK1α (Homo sapiens, UniProt P48729+Q96SW2); test: Western-blot assay, substrate protein degradation in hPBMCs: CK1α; assay type: cell-based; settings: 24 hours of compound treatment, 50 nM and 500 nM
# T5 construct: effects of the compounds of the present disclosure on the expression of target proteins in cells; endogenous in cells; host or cells: human PBMCs (hPBMCs)
# T5 sequence (P48729 whole entry): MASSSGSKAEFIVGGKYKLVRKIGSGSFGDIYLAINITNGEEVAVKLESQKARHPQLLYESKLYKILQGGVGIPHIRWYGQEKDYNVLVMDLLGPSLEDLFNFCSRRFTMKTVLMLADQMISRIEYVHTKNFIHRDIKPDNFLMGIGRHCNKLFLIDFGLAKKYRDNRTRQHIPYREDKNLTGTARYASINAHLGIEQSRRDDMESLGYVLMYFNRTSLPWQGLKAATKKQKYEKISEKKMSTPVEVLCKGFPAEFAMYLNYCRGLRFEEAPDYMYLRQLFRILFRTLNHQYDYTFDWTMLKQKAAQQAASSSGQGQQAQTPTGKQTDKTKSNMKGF
# T5 sequence (Q96SW2 whole entry): as the sequence (Q96SW2 whole entry) above
# T5 sequence (Q16531 whole entry partner): as the sequence (Q16531 whole entry partner) above
# IKZF1 = target: T6, IKZF1 (Homo sapiens, UniProt Q13422+Q96SW2); test: Western-blot assay, substrate protein degradation in hPBMCs: IKZF1; assay type: cell-based; settings: 24 hours of compound treatment, 50 nM and 500 nM
# T6 construct: effects of the compounds of the present disclosure on the expression of target proteins in cells; endogenous in cells; host or cells: human PBMCs (hPBMCs)
# T6 sequence (Q13422 whole entry): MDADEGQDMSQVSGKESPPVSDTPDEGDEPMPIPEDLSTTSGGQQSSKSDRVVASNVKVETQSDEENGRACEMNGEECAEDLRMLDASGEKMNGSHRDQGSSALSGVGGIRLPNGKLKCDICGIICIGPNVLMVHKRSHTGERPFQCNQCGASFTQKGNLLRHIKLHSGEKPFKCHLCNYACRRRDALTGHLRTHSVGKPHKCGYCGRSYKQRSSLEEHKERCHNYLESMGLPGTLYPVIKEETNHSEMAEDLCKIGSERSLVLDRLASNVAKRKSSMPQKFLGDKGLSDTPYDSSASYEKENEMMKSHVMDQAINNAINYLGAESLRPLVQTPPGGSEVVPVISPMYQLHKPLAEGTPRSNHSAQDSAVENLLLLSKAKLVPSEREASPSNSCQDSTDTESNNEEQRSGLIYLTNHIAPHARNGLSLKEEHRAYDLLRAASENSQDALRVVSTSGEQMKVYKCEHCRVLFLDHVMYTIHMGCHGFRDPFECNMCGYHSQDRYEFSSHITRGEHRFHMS
# T6 sequence (Q96SW2 whole entry): as the sequence (Q96SW2 whole entry) above
# T6 sequence (Q16531 whole entry partner): as the sequence (Q16531 whole entry partner) above
# H292 = test: Cell viability assay (CellTiter-Meiluncell Luminescent), tumor cell proliferation, H292; settings: Homo sapiens, NCI-H292, 96 h; for inhibition at 0.01 µM: read-out: Inhibition Rate at 10 nM (%); for inhibition at 0.5 µM: read-out: Inhibition Rate at 500 nM (%)
# MV-4-11 = test: Cell viability assay (CellTiter-Meiluncell Luminescent), tumor cell proliferation, MV-4-11; settings: Homo sapiens, MV4-11, 96 h; for inhibition at 0.01 µM: read-out: Inhibition Rate at 10 nM (%); for inhibition at 0.5 µM: read-out: Inhibition Rate at 500 nM (%)
# Description: as §1, §2, §3
# IKZF2 = target: T7, IKZF2 (Homo sapiens, UniProt Q96SW2+Q9UKS7); test: Western-blot assay, substrate protein degradation in hPBMCs: IKZF2; assay type: cell-based; settings: 24 hours of compound treatment, 50 nM and 500 nM
# T7 construct: effects of the compounds of the present disclosure on the expression of target proteins in cells; endogenous in cells; host or cells: human PBMCs (hPBMCs)
# T7 sequence (Q9UKS7 whole entry): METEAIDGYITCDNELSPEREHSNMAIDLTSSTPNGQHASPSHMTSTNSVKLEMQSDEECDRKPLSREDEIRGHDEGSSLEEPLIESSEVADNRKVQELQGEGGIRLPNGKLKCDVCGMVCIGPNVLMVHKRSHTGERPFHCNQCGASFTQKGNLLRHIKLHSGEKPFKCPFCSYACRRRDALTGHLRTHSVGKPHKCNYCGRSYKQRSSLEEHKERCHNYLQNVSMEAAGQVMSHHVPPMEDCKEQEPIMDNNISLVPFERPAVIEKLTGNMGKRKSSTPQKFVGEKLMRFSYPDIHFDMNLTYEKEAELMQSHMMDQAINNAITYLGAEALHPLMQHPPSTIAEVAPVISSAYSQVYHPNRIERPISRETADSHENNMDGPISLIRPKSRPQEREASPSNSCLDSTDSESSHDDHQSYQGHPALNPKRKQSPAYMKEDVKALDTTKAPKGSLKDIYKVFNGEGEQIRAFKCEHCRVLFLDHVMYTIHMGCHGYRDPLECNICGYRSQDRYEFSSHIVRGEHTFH
# T7 sequence (Q96SW2 whole entry): as the sequence (Q96SW2 whole entry) above
# T7 sequence (Q16531 whole entry partner): as the sequence (Q16531 whole entry partner) above
# MDA-MB-231 = test: Cell viability assay (CellTiter-Meiluncell Luminescent), tumor cell proliferation, MDA-MB-231; settings: Homo sapiens, MDA-MB-231, 96 h; for inhibition at 0.01 µM: read-out: Inhibition Rate at 10 nM (%); for inhibition at 0.5 µM: read-out: Inhibition Rate at 500 nM (%)
# Description: as §1, §2, §3
"IC50 (MM.1S; read-out: inhibitory activity (IC50, nM) against tumor cells proliferation, MM.1S) [nM]",IC50 ([1]; 3 hours at room temperature) [nM],inhibition at 0.5 µM [1] [%],inhibition at 2 µM [1] [%],SMILES,inhibition at 0.01 µM (H2228) [%],inhibition at 0.5 µM (H2228) [%],substrate protein remaining % IKZF3 (IKZF3),substrate protein remaining % GSPT1 (GSPT1),inhibition at 0.01 µM (MM.1S; read-out: Inhibition Rate at 10 nM (%)) [%],inhibition at 0.5 µM (MM.1S; read-out: Inhibition Rate at 500 nM (%)) [%],substrate protein remaining % WEE1 (WEE1),substrate protein remaining % CK1α (CK1α),substrate protein remaining % IKZF1 (IKZF1),inhibition at 0.01 µM (H292) [%],inhibition at 0.5 µM (H292) [%],inhibition at 0.01 µM (MV-4-11) [%],inhibition at 0.5 µM (MV-4-11) [%],substrate protein remaining % IKZF2 (IKZF2),inhibition at 0.01 µM (MDA-MB-231) [%],inhibition at 0.5 µM (MDA-MB-231) [%]
100 to 300,1000 to 1500,–,–,"N#Cc1ccc(N2CCN(Cc3ccc(COc4cccc5c4CN(N4CCC(=O)NC4=O)C5=O)cc3)CC2)c(F)c1 [GT-06132, 4-(4-(4-(((2-(2,4-dioxotetrahydropyrimidin-1(2H)-yl)-1-oxoisoindolin-4-yl)oxy)methyl)benzyl)piperazin-1-yl)-3-fluorobenzonitrile]",–,–,–,–,–,–,–,–,–,–,–,–,–,–,–,–
–,–,20 to 30,60 to 80,"O=C1CCN(N2Cc3cc(CN4CCN(c5ncnc6scc(-c7ccccc7)c56)CC4)ccc3C2=O)C(=O)N1 [GT-08065, 1-(1-oxo-5-((4-(5-phenylthieno[2,3-d]pyrimidin-4-yl)piperazin-1-yl)methyl)isoindolin-2-yl)dihydropyrimidine-2,4(1H,3H)-dione]",20 to 25,25 to 30,B (80%< substrate protein remaining %≤ 100%),B (80%< substrate protein remaining %≤ 100%),20 to 30,20 to 30,B (80%< substrate protein remaining %≤ 100%),B (80%< substrate protein remaining %≤ 100%),B (80%< substrate protein remaining %≤ 100%),20 to 40,20 to 40,30 to 40,10 to 18,A (0% ≤ substrate protein remaining % ≤ 80%),–,–
–,–,20 to 30,60 to 80,"Cc1nc(N2CCN(Cc3ccc4c(c3)CN(N3CCC(=O)NC3=O)C4=O)CC2)c2c(-c3ccccc3)csc2n1 [GT-08066, 1-(5-((4-(2-methyl-5-phenylthieno[2,3-d]pyrimidin-4-yl)piperazin-1-yl)methyl)-1-oxoisoindolin-2-yl)dihydropyrimidine-2,4(1H,3H)-dione]",–,–,B (80%< substrate protein remaining %≤ 100%),B (80%< substrate protein remaining %≤ 100%),–,–,B (80%< substrate protein remaining %≤ 100%),A (0% ≤ substrate protein remaining % ≤ 80%),B (80%< substrate protein remaining %≤ 100%),20 to 40,20 to 40,18 to 25,10 to 18,A (0% ≤ substrate protein remaining % ≤ 80%),15 to 18,15 to 18
–,–,20 to 30,53 to 60,"O=C1CCN(N2Cc3cc(CN4CCN(c5ncnc6sc7c(c56)CCC7)CC4)ccc3C2=O)C(=O)N1 [GT-08079, 1-(5-((4-(6,7-dihydro-5H-cyclopenta[4,5]thieno[2,3-d]pyrimidin-4-yl)piperazin-1-yl)methyl)-1-oxoisoindolin-2-yl)dihydropyrimidine-2,4(1H,3H)-dione]",15 to 20,20 to 25,B (80%< substrate protein remaining %≤ 100%),A (0% ≤ substrate protein remaining % ≤ 80%),–,–,A (0% ≤ substrate protein remaining % ≤ 80%),A (0% ≤ substrate protein remaining % ≤ 80%),B (80%< substrate protein remaining %≤ 100%),20 to 40,20 to 40,40 to 60,40 to 60,B (80%< substrate protein remaining %≤ 100%),18 to 25,10 to 15
–,–,20 to 30,53 to 60,"Cc1nc(N2CCN(Cc3ccc4c(c3)CN(N3CCC(=O)NC3=O)C4=O)CC2)c2c3c(sc2n1)CCC3 [GT-08080, 1-(5-((4-(2-methyl-6,7-dihydro-5H-cyclopenta[4,5]thieno[2,3-d]pyrimidin-4-yl)piperazin-1-yl)methyl)-1-oxoisoindolin-2-yl)dihydropyrimidine-2,4(1H,3H)-dione]",30 to 40,20 to 25,B (80%< substrate protein remaining %≤ 100%),A (0% ≤ substrate protein remaining % ≤ 80%),–,–,A (0% ≤ substrate protein remaining % ≤ 80%),A (0% ≤ substrate protein remaining % ≤ 80%),B (80%< substrate protein remaining %≤ 100%),40 to 60,20 to 40,–,–,B (80%< substrate protein remaining %≤ 100%),18 to 25,15 to 18
–,–,20 to 30,60 to 80,"Cc1nc(C2CCN(Cc3ccc4c(c3)CN(N3CCC(=O)NC3=O)C4=O)CC2)c2c(-c3ccccc3)csc2n1 [GT-08087, 1-(5-((4-(2-methyl-5-phenylthieno[2,3-d]pyrimidin-4-yl)piperidin-1-yl)methyl)-1-oxoisoindolin-2-yl)dihydropyrimidine-2,4(1H,3H)-dione]",–,–,–,–,–,–,–,–,–,–,–,30 to 40,30 to 40,–,–,–
–,–,20 to 30,53 to 60,"O=C1CCN(N2Cc3cc(CN4CC=C(c5ncnc6scc(-c7ccccc7)c56)CC4)ccc3C2=O)C(=O)N1 [GT-08174, 1-(1-oxo-5-((4-(5-phenylthieno[2,3-d]pyrimidin-4-yl)-3,6-dihydropyridin-1(2H)-yl)methyl)isoindolin-2-yl)dihydropyrimidine-2,4(1H,3H)-dione]",15 to 20,20 to 25,–,–,–,–,–,–,–,10 to 15,20 to 40,25 to 30,10 to 18,–,18 to 25,25 to 40
–,–,30 to 40,60 to 80,"Cc1nc(C2=CCN(Cc3ccc4c(c3)CN(N3CCC(=O)NC3=O)C4=O)CC2)c2c(-c3ccccc3)csc2n1 [GT-08176, 1-(5-((4-(2-methyl-5-phenylthieno[2,3-d]pyrimidin-4-yl)-3,6-dihydropyridin-1(2H)-yl)methyl)-1-oxoisoindolin-2-yl)dihydropyrimidine-2,4(1H,3H)-dione]",–,–,–,–,–,–,–,–,–,15 to 20,20 to 40,60 to 80,30 to 40,–,–,–
–,–,20 to 30,53 to 60,"Cc1nc(C2=CCN(Cc3ccc4c(c3)CN(N3CCC(=O)NC3=O)C4=O)CC2)c2c3c(sc2n1)CCCC3 [GT-08177, 1-(5-((4-(2-methyl-5,6,7,8-tetrahydrobenzo[4,5]thieno[2,3-d]pyrimidin-4-yl)-3,6-dihydropyridin-1(2H)-yl)methyl)-1-oxoisoindolin-2-yl)dihydropyrimidine-2,4(1H,3H)-dione]",–,–,–,–,–,–,–,–,–,10 to 15,10 to 15,40 to 60,30 to 40,–,–,–
